The values below come from US20120165403A1, “METHODS OF INHIBITING THE ACTIVITY OF HSP90 AND/OR ARYL HYDROCARBON RECEPTOR” (UNIVERSITY OF ROCHESTER, priority 2004, published 2012).

In experiment [1] the test system is chicken hsp90. The experiment can be described thus: Affinity chromatography on EGCG-conjugated Sepharose, hsp90 point and truncation mutants. Format: binding. The text has this: (§1) Murine AhR and ARNT cDNA (obtained from J. Whitlock and O. Hankinson, respectively) were inserted into pcDNA3 (Invitrogen, Carlsbad, Calif.). Chicken hsp90 constructs (FIG. 5), c90711hsp (wild-type), c90G94D (wild-type point mutant gly94→Asp (Grenert et al., J. Biol. Chem. 272:23843-23850 (1997), which is hereby incorporated by reference in its entirety), c90D92A (wild-type point mutant Asp92→Ala (Sullivan et al., J. Biol. Chem. 268:20373-20379 (1993), which is hereby incorporated by reference in its entirety), c90N221 (wild-type truncation mutant encoding a.a. 221-728 (Sullivan et al., J. Biol. Chem. 268:20373-20379 (1993), which is hereby incorporated by reference in its entirety)), c90N303 (a.a. 303-728) and c90N538 (a.a. 538-728) were kind gifts from Dr. D. Toft (Rochester, Minn.). The C-terminal truncation mutant c900507 (a.a. 1-221) was obtained from Dr. L. Neckers (Rockville, Md.) (Grenert et al., J. Biol. Chem. 272:23843-23850 (1997); Marcu et al., J. Biol. Chem. 275:37181-37186 (2000), which are hereby incorporated by reference in their entirety). Human p23 cDNA was excised from pQE80-p23 (obtained from W. Chan Stockton, Calif.) by sequential digests using the restriction enzymes Sad (3′-end) and BamHI (5′-end) and inserted into the similarly digested pET28a (Novagen, Madison, Wis.). The mouse histidine-tagged XAP2 construct, pET-AIP (Bell et al., J. Biol. Chem. 275:36407-36414 (2000), which is hereby incorporated by reference in its entirety), was a kind gift from Dr. D. Bell (Nottingham, UK). All constructs are in the T7 orientation with the exception of c900507, which is driven by an SP6 promoter.
AhR, ARNT, hsp90 (wild-type, point mutants, and truncation mutants), p23, and XAP2 were generated (separately) by coupled transcription/translation in rabbit reticulocyte lysate (RRL) using the TNT® system according to the manufacturer's protocol (Promega, Madison Wis.). In this system, ^35S-methionine was included in the transcription/translation mix to generate ^35S-labeled protein.
EGCG was conjugated to cyanogen bromide (CNBr)-activated Sepharose (Sigma). […]

Experiment [2] addresses T1, AhR (Mus musculus, UniProt P30561).
T1 construct: made in house; host or cells: coupled transcription/translation in rabbit reticulocyte lysate (TNT, Promega), 35S-labelled
T1 sequence (P30561 10-848): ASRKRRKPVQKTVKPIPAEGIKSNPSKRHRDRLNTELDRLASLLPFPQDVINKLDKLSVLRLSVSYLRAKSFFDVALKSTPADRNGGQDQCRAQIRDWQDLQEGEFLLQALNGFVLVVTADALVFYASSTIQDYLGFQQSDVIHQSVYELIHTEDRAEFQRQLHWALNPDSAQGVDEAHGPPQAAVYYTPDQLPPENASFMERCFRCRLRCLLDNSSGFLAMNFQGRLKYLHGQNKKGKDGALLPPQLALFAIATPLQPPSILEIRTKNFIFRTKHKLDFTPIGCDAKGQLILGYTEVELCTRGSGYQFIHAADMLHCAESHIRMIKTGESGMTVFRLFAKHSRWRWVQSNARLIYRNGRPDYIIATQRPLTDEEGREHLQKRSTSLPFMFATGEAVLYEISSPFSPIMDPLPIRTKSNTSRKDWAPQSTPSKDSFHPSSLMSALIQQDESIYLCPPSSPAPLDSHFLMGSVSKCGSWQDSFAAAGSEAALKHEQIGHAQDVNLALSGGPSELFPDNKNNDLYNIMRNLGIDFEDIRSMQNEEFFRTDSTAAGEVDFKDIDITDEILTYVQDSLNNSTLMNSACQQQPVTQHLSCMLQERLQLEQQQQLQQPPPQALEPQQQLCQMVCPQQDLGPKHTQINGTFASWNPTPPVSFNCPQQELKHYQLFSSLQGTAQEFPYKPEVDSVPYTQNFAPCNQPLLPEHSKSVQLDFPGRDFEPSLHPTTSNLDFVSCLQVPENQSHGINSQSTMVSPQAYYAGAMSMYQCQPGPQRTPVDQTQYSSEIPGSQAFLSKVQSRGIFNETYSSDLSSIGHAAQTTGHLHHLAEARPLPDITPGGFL
In words: Affinity chromatography on EGCG-conjugated Sepharose, in vitro translated AhR. Conditions: 35S-AhR in vitro translated in RRL. Format: binding, murine.
Excerpt: as §1, with “The mouse histidine-tagged XAP2 construct, pET-AIP (Bell et al., J. Biol. Chem. 275:36407-36414 (2000), which is hereby incorporated by reference in its entirety), was a kind gift from Dr. D. Bell (Nottingham, UK). All constructs are in the T7 orientation with the exception of c900507, which is driven by an SP6 promoter.” left out

Regarding `O=C(O[C@@H]1Cc2c(O)cc(O)cc2O[C@@H]1c1cc(O)c(O)c(O)c1)c1cc(O)c(O)c(O)c1` [EGCG, epigallocatechin gallate], the “binding of C-terminal hsp90 fragments” value in experiment [1] (all C-terminal fragments (N221, N303, N538)) is “bound EGCG”. Also, the “binding of N-terminal point mutants D92A, G94D to EGCG-Sepharose” value in experiment [1] (compared with wild type hsp90) was “bound to EGCG-Sepharose as well as or better than the wild type hsp90”. For the same compound, in experiment [1] (fragment containing the GA binding site), the “binding of amino-terminal hsp90 fragment C507 to immobilized EGCG” value was “failed to bind to immobilized EGCG”. The “binding of AhR to immobilized EGCG” value in experiment [2] is “not able to bind immobilized EGCG”.
